According to patent publication US9273057B2 (Bristol-Myers Squibb Company, priority 2012, dated 2016):
Where a name gives a salt, the structure may show the parent alone.

Target: CK2A1 (CK2α/β) (Homo sapiens, UniProt P68400)
Assay: CK2 kinase assay, CK2A1 (CK2α/β)
Assay type: biochemical
Conditions: Table A; read-out: CK2A1 (CK2α/β) (IC50)

CK2A1 (CK2α/β), sequence (P68400 whole entry, species assumed): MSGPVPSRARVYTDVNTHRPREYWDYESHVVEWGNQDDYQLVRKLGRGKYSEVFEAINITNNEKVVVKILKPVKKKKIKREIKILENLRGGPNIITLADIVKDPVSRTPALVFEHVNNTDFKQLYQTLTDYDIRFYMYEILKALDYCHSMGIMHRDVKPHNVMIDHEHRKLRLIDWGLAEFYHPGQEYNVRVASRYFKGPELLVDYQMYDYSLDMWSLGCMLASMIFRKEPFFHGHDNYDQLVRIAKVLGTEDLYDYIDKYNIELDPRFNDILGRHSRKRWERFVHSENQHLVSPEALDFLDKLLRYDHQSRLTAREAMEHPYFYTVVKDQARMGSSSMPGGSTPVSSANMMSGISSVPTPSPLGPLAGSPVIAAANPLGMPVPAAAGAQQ
CK2A1 (CK2α/β), sequence (P67870 whole entry partner, species assumed): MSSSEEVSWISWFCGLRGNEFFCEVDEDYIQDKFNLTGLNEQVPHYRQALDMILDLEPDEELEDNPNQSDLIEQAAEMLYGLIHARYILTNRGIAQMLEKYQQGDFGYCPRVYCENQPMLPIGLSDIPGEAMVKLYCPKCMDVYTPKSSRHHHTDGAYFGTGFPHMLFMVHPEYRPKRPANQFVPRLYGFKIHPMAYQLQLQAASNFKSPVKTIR

Row | IC50 | SMILES
1 | 2.49 nM | CCNc1nc(Nc2cc(C#N)cc(N3CC[C@@H](NC(=O)OC)[C@H](OC(=O)[C@H](N)CC(N)=O)C3)c2Cl)nn2c(C#N)cnc12 [Example 818, (R)-(3R,4R)-1-(2-chloro-5-cyano-3-((7-cyano-4-(ethylamino)imidazo[2,1-f][1,2,4]triazin-2-yl)amino)phenyl)-4-((methoxycarbonyl)amino)piperidin-3-yl 2,4-diamino-4-oxobutanoate hydrochloride]
2 | 32.6 nM | CC(C)N(C1CCN(c2cc(C#N)cc(Nc3nc(NC4CC4)c4ncc(C#N)n4n3)c2Cl)CC1)C1CC(=O)N(C)C1 (stereo not shown) [Example 716, 2-[(2-chloro-5-cyano-3-{4-[(1-methyl-5-oxopyrrolidin-3-yl)(propan-2-yl)amino]piperidin-1-yl}phenyl)amino]-4-(cyclopropylamino)imidazo [2,1-f][1,2,4]triazine-7-carbonitrile]
3 | 1.2 nM | CCNc1nc(Nc2cc(C#N)cc(N3CC[C@@H](NC(=O)OC)C(NCC(C)(C)O)C3)c2Cl)nn2c(C#N)cnc12 (stereo in doubt) [Example 760, methyl N-[(3S,4R)-1-(2-chloro-5-cyano-3-{[7-cyano-4-(ethylamino)imidazo[2,1-f][1,2,4]triazin-2-yl]amino}phenyl)-3-[(2-hydroxy-2-methylpropyl)amino]piperidin-4-yl] carbamate]

Further lines, the compound ahead of its results:

Row | SMILES | IC50
4 | N#Cc1cc(Nc2nc(NC3CC3)c3ncc(C#N)n3n2)c(Cl)c(N2CCC(NC3CS(=O)(=O)C3)CC2)c1 [Example 129, 2-((2-chloro-5-cyano-3-(4-((1,1-dioxido-3-thietanyl)amino)-1-piperidinyl)phenyl)amino)-4-(cyclopropylamino)imidazo [2,1-f][1,2,4]triazine-7-carbonitrile] | 5.13 nM
5 | CNC(=O)CN1CCC(c2cc(C#N)cc(Nc3nc(NC4CC4)c4ncc(C#N)n4n3)c2Cl)CC1 [Example 642, 2-(4-(2-chloro-5-cyano-3-((7-cyano-4-(cyclopropylamino)imidazo[2,1-f][1,2,4]triazin-2-yl)amino)phenyl)piperidin-1-yl)-N-methylacetamide] | 0.76 nM
6 | N#Cc1cc(Nc2nc(NC3CC3)c3ncc(C#N)n3n2)c(Cl)c(N2CCN(CC3CCCCO3)CC2)c1 (stereo not shown) [Example 609, 2-({2-chloro-5-cyano-3-[4-(oxan-2-ylmethyl)piperazin-1-yl]phenyl}amino)-4-(cyclopropylamino)imidazo [2,1-f][1,2,4]triazine-7-carbonitrile] | 1.39 nM
7 | N#Cc1cc(Nc2nc(NC3CC3)c3ncc(C#N)n3n2)c(Cl)c(C2CCN(C3CCN(C4CC4)CC3)CC2)c1 [Example 213, 2-(2-chloro-5-cyano-3-(1′-cyclopropyl-1,4′-bipiperidin-4-yl)phenylamino)-4-(cyclopropylamino)imidazo[1,2-f][1,2,4]triazine-7-carbonitrile] | 4 nM
8 | CC(C)(C(N)=O)N1CCC(c2cc(C#N)cc(Nc3nc(NC4CC4)c4ncc(C#N)n4n3)c2Cl)CC1 [Example 641, 2-(4-(2-chloro-5-cyano-3-((7-cyano-4-(cyclopropylamino)imidazo[2,1-f][1,2,4]triazin-2-yl)amino)phenyl)piperidin-1-yl)-2-methylpropanamide] | 4.01 nM
9 | CC(C)(C)C(=O)N1CCC(c2cc(C#N)cc(Nc3nc(NC4CC4)c4ncc(C#N)n4n3)c2Cl)CC1 [Example 234, 2-((2-chloro-5-cyano-3-(1-(2,2-dimethylpropanoyl)-4-piperidinyl)phenyl)amino)-4-(cyclopropylamino)imidazo[2,1-f][1,2,4]triazine-7-carbonitrile] | 1.6 nM
10 | Cc1cc(CNC2CCN(c3cc(C#N)cc(Nc4nc(NC5CC5)c5ncc(C#N)n5n4)c3Cl)CC2)on1 [Example 140, 2-(2-chloro-5-cyano-3-(4-((3-methylisoxazol-5-yl)methylamino)piperidin-1-yl)phenylamino)-4-(cyclopropylamino)imidazo [1,2-f][1,2,4]triazine-7-carbonitrile] | 2.68 nM
